The source of these data is patent US5231089A, “Method of improving oral bioavailability of carbamazepine” (priority 1992, dated 1993).

Read-outs that look alike come from different tables or passages of the source.

For data set [1] the following is noted: cited from earlier work; for solubilization in water: 15 mg/mL hydroxypropyl-β-cyclodextrin (Uekama et al).
For data set [2], the system named is generalized tonic-clonic seizures. The note with it: human, in vivo; cited from earlier work.
The conditions of data set [3]: cited from earlier work.
Data set [4] concerns maximal electroshock seizure (MES) test models. The conditions noted are these: in vivo; cited from earlier work.
For data set [5] the following is noted: cited from earlier work; for Absolute bioavailability: 100 mg 2% oral suspension vs intravenous infusion (Gerardin et al).
For data set [6] the following is noted: with water-soluble β-cyclodextrin epichlorohydrin polymer; cited from earlier work.
The conditions of data set [7]: in vivo; cited from earlier work.
For data set [8] the following is noted: dog, in vivo.
The mark [9] stands for this setting: healthy human subjects (Neuvonen et al).

Take `C[C@]12CC[C@H]3[C@@H](CCC4=CC(=O)CC[C@@]43C)[C@@H]1CC[C@@H]2O` [testosterone]: the solubilization in water entry in data set [1] was “improved solubilization”.

In the case of `NC(=O)N1c2ccccc2C=Cc2ccccc21` [carbamazepine, 5H-dibenz[b,f]azepine-5-carboxamide], in data set [1] (no cyclodextrin), the “water solubility of carbamazepine” value is recorded as “extremely poor water solubility”. Also, the “efficacy in generalized tonic-clonic seizures (grand mal)” value in data set [2] is “proven efficacy”. Also, the “gingival hypertropy, hirsutism, acne” value in data set [3] (effects associated with phenytoin) was “does not precipitate”. Further, in data set [3] (human, in vivo), the Therapeutic plasma levels is 4 to 10 µg/mL; the “level at which diplopia, dizziness, drowsiness and ataxia occur” value was “above 6 μg/mL”; the sedation entry was “less sedating”; the “serum level at which nystagmus may occur” value is recorded as “below the therapeutic range”. For the same compound, the “effectiveness in MES test models” value in data set [4] is “effective”. Further, the “total bioavailability (area under the curve)” value in data set [5] (Australian tablets 1977 vs since 1980 (Eadie et al)) is given as “no significant difference in total bioavailability”. Besides, the “oral absorption, adequacy” value in data set [5] (Goodman and Gilman) was “adequate”. In addition, the “plasma levels, 200 or 400 mg tablets” value in data set [5] (epileptic patients (Monaco et al)) is recorded as “no difference in plasma levels”. For the same compound, in data set [5] (setting [9]), the “absorption, rectal versus oral” value is listed as “significantly slower” and the “total bioavailability, rectal versus oral” value was “similar”. For the same compound, the “bioavailability from the oral suspension versus intravenous” value in data set [5] (healthy male volunteers (Gerardin et al)) is reported as “equivalent”. In data set [5] (rate/regularity, in words), the oral absorption entry was “slow and somewhat erratic”. Moreover, the Absolute bioavailability in data set [5] (subject 1) is on record as 102.3%. The Absolute bioavailability in data set [5] (subject 2) is 100.1%.

For the compound `CC(=O)[C@H]1CC[C@H]2[C@@H]3CCC4=CC(=O)CC[C@]4(C)[C@H]3CC[C@]12C` [progesterone], in data set [1], the solubilization in water entry is on record as “improved solubilization”.

Take `O=C1NC(=O)C(c2ccccc2)(c2ccccc2)N1` [phenytoin]: the solubilization in water result in data set [1] was “improved solubilization”. Further, in data set [6], the dissolution and absorption entry was “Improvements”.

Regarding `COc1ccc2c(c1)c(CC(=O)O)c(C)n2C(=O)c1ccc(Cl)cc1` [indomethacin], the solubilization in water entry in data set [1] is recorded as “improved solubilization”.

For the compound `CCCCCCNC(=O)n1cc(F)c(=O)[nH]c1=O` [carmofur], in data set [1], the solubilization in water entry is listed as “improved solubilization”.

As for `OC[C@H]1O[C@@H]2O[C@H]3[C@H](O)[C@@H](O)[C@@H](O[C@H]4[C@H](O)[C@@H](O)[C@@H](O[C@H]5[C@H](O)[C@@H](O)[C@@H](O[C@H]6[C@H](O)[C@@H](O)[C@@H](O[C@H]7[C@H](O)[C@@H](O)[C@@H](O[C@H]8[C@H](O)[C@@H](O)[C@@H](O[C@H]1[C@H](O)[C@H]2O)O[C@@H]8CO)O[C@@H]7CO)O[C@@H]6CO)O[C@@H]5CO)O[C@@H]4CO)O[C@@H]3CO` [β-cyclodextrin], the nephrotoxicity result in data set [7] was “nephrotoxicity”. Besides, the aqueous solubility entry in data set [1] (25° C.) was “about 1.8 % w/v”.

For `C[C@H]1O[C@@H](O[C@H]2[C@@H](O)C[C@H](O[C@H]3[C@@H](O)C[C@H](O[C@H]4CC[C@@]5(C)[C@H](CC[C@@H]6[C@@H]5C[C@@H](O)[C@]5(C)[C@@H](C7=CC(=O)OC7)CC[C@]65O)C4)O[C@@H]3C)O[C@@H]2C)C[C@H](O)[C@@H]1O` [digoxin], the solubilization in water result in data set [1] is “improved solubilization”.

On to `C[C@]12C=CC(=O)C=C1CC[C@@H]1[C@@H]2[C@@H](O)C[C@@]2(C)[C@H]1CC[C@]2(O)C(=O)CO` [prednisolone], for which, in data set [1], the solubilization in water result is reported as “improved solubilization”.

On to `OC[C@H]1O[C@@H]2O[C@H]3[C@H](O)[C@@H](O)[C@@H](O[C@H]4[C@H](O)[C@@H](O)[C@@H](O[C@H]5[C@H](O)[C@@H](O)[C@@H](O[C@H]6[C@H](O)[C@@H](O)[C@@H](O[C@H]7[C@H](O)[C@@H](O)[C@@H](O[C@H]8[C@H](O)[C@@H](O)[C@@H](O[C@H]9[C@H](O)[C@@H](O)[C@@H](O[C@H]1[C@H](O)[C@H]2O)O[C@@H]9CO)O[C@@H]8CO)O[C@@H]7CO)O[C@@H]6CO)O[C@@H]5CO)O[C@@H]4CO)O[C@@H]3CO` [γ-cyclodextrin], for which the “effect on the water solubility of carbamazepine” value in data set [1] (Brewster et al) was “significantly enhance”.

On to `CC(C(=O)O)c1ccc(-c2ccccc2)c(F)c1` (stereo not shown) [flurbiprofen], for which the solubilization in water entry in data set [1] is reported as “improved solubilization”.

As for `NC(=O)N1c2ccccc2C=Cc2ccccc21` [TEGRETOL], in data set [8], the “coefficient of variation around the AUC” value turned out to be 78% and the “coefficient of variation of Cmax” value turned out to be 71%.
